IC50 and inhibition data for 28 compounds are collected here from patent publication US20240083857A1, “2-Methyl-Quinazolines” (Bayer Pharma Aktiengesellschaft, priority 2017, published 2024).

Assay [1] concerns the target human SOS1 (nucleotide exchange of K-Ras^G12C) (Homo sapiens, UniProt Q07889). As to the kind of experiment: Biochemical assay 2: K-Ras^G12C activation assay by hSOS1 at high GTP concentration (HTRF). Particulars: for IC50: E-notation values, unit inferred, 50 μM GTP, read-out: Assay 2 (KRAS-Activation, high GTP) IC50; for inhibition at 20 µM: read-out: Assay 2 (KRAS-Activation by SOS high GTP) activity expressed as % inhibition at 20 μM, high GTP.

Assay [2] deals with Epidermal Growth Factor Receptor (EGFR) (Homo sapiens (Human), UniProt P00533). As to the kind of experiment: EGFR kinase assay (TR-FRET). It counts as biochemical. In a few lines: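 Read-out is the 665/620 nm HTRF ratio, from a Tb-cryptate anti-phosphotyrosine antibody and streptavidin-XL665 bound to phosphorylated biotin-peptide substrate. The enzyme, A431-derived EGFR (~3 U/ml), was given 15 min compound pre-binding at 22° C in Hepes pH 7.0 with Mg2+/Mn2+ before reaction.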
For orientation: TR-FRET usually uses a lanthanide donor and a delayed reading to cut background.

The mark [3] stands for this setting: E-notation values, unit inferred, read-out: EGFR-assay IC50.
[4] abbreviates: in μM, read-out: EGFR-assay IC50.
[5] abbreviates: values given in μM, read-out: EGFR kinase inhibition IC50.

SMILES strings stand for the structures. Like-named read-outs stand apart in the source and are kept apart here.

Sequence of Epidermal Growth Factor Receptor (EGFR) (P00533 25-1210): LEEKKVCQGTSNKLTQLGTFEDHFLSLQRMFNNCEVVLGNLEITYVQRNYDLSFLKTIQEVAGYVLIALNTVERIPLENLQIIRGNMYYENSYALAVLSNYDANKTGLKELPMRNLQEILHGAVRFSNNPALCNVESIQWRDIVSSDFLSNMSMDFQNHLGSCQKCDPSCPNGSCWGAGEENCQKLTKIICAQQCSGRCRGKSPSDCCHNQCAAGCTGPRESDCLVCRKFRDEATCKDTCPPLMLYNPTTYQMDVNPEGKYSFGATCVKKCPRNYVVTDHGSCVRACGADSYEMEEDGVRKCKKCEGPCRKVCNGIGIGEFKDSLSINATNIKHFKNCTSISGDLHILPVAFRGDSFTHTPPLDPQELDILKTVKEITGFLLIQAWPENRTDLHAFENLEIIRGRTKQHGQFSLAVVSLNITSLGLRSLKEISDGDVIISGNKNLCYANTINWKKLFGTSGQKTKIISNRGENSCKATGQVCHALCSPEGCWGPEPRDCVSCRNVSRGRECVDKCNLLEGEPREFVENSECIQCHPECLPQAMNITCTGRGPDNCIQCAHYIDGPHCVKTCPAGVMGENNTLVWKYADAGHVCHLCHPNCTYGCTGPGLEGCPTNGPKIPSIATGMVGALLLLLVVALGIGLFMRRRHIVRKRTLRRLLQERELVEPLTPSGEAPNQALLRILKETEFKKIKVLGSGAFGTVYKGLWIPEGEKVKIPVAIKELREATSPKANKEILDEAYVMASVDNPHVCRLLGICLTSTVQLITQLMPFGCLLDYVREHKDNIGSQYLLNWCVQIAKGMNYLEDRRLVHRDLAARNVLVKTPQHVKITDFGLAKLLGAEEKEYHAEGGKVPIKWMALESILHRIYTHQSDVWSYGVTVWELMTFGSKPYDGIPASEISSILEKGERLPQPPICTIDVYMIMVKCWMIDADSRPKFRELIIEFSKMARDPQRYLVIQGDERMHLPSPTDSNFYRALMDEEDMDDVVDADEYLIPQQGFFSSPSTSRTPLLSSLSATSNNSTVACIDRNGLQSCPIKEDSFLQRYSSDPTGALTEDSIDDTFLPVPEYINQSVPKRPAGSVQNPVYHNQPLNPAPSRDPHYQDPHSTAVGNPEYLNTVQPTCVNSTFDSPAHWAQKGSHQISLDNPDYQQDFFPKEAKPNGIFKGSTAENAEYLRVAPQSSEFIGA

As for `Cc1nc(NC(C)c2ccc(-c3ccccc3CN(C)C)s2)c2cc(N)ccc2n1` (centres unmarked) [Example 423, N4-[1-(5-{2-[(dimethylamino)methyl]phenyl}-2-thienyl)ethyl]-2-methylquinazoline-4,6-diamine], the IC50 (as a rule, the concentration that gives 50% inhibition) in assay [1] is 187 nM; in assay [2] (setting [3]), > 20 µM.

In the case of `COCCNCc1ccccc1-c1ccc(C(C)Nc2nc(C)nc3cc(OC)c(OC)cc23)s1` (centres unmarked) [Example 369, 6,7-dimethoxy-N-{1-[5-(2-{[(2-methoxyethyl)amino]methyl}phenyl)thiophen-2-yl]ethyl}-2-methylquinazolin-4-amine], the figures for the IC50 in assay [1] and in assay [2] (setting [4]) were 152 nM and > 20 µM, respectively.

On to `Cc1nc(NC(C)c2ccc(-c3ccccc3CN(C)C)s2)c2cc(NCCN3CCOCC3)ccc2n1` (centres unmarked) [Example 433, N4-[1-(5-{2-[(dimethylamino)methyl]phenyl}-2-thienyl)ethyl]-2-methyl-N6-[2-(morpholin-4-yl)ethyl]quinazoline-4,6-diamine], for which the IC50 is 70.1 nM in assay [1] and > 20 µM in assay [2] (setting [3]).

For `COc1cc2nc(C)nc(NC(C)c3cc(Cl)c(Br)s3)c2cc1OC` (centres unmarked) [Example 432, N-[1-(5-bromo-4-chlorothiophen-2-yl)ethyl]-6,7-dimethoxy-2-methylquinazolin-4-amine], the IC50 in assay [1] was 15700 nM; in assay [2] (setting [3]) it was > 20 µM.

As for `COc1cc2nc(C)nc(NC(C)c3cc(C)c(-c4ccccc4CN(C)C)s3)c2cc1OC` (centres unmarked) [Example 400, N-[1-(5-{2-[(dimethylamino)methyl]phenyl}-4-methyl-2-thienyl)ethyl]-6,7-dimethoxy-2-methylquinazolin-4-amine], the values for the IC50 in assay [1] and in assay [2] (setting [3]) were 68.8 nM and > 20 µM, respectively.

On to `COc1cc2nc(C)nc(NC(C)c3ccc(-c4c(Cl)cccc4CNC(=O)OC(C)(C)C)s3)c2cc1OC` (centres unmarked) [Example 408, tert-butyl [3-chloro-2-(5-{1-[(6,7-dimethoxy-2-methylquinazolin-4-yl)amino]ethyl}thiophen-2-yl)benzyl]carbamate], for which the IC50 in assay [1] was 560 nM; in assay [2] (setting [3]), > 20 µM.

Regarding `COC(=O)c1cc(-c2ccc(C(C)Nc3nc(C)nc4cc(OC)c(OC)cc34)s2)nn1C` (centres unmarked) [Example 237, methyl 3-(5-{1-[(6,7-dimethoxy-2-methylquinazolin-4-yl)amino]ethyl}thiophen-2-yl)-1-methyl-1H-pyrazole-5-carboxylate], the inhibition (in general, the relative decrease from the control value, in per cent) at 20 µM in assay [1] was 32%. Besides, the IC50 in assay [2] (setting [5]) was > 20 µM.

On to `Cc1nc(N[C@H](C)c2cccc(Cl)c2)c2cc(-c3cn[nH]c3)ccc2n1` [Example 405, N-[(1R)-1-(3-chlorophenyl)ethyl]-2-methyl-6-(1H-pyrazol-4-yl)quinazolin-4-amine], for which the IC50 in assay [1] is 448 nM; in assay [2] (setting [3]), > 20 µM.

Consider `COc1cc2nc(C)nc(NC(C)c3ccc(-c4ccccc4C(O)C(C)C)s3)c2cc1OC` (centres unmarked) [Example 379, 1-[2-(5-{1-[(6,7-dimethoxy-2-methylquinazolin-4-yl)amino]ethyl}thiophen-2-yl)phenyl]-2-methylpropan-1-ol], for which the IC50 in assay [1] was 1350 nM; in assay [2] (setting [4]) it was > 20 µM.

Turning to `COc1cc2nc(C)nc(NC(C)c3ccc(-c4c(Cl)cccc4CN)s3)c2cc1OC` (centres unmarked) [Example 409, N-[1-{5-[2-(aminomethyl)-6-chlorophenyl]thiophen-2-yl}ethyl]-6,7-dimethoxy-2-methylquinazolin-4-amine], the IC50 in assay [1] was 28 nM; in assay [2] (setting [3]), > 20 µM.

Turning to `COc1ccc(-c2ccc(C(C)Nc3nc(C)nc4cc(OC)c(OC)cc34)s2)c(C)c1` (centres unmarked) [Example 422, 6,7-dimethoxy-N-{1-[5-(4-methoxy-2-methylphenyl)thiophen-2-yl]ethyl}-2-methylquinazolin-4-amine], the values for the IC50 in assay [1] and in assay [2] (setting [3]) were 914 nM and > 20 µM, respectively.

With `COc1cc2nc(C)nc(NC(C)c3cc(C)c(-c4ccc(F)cc4CN)s3)c2cc1OC` (centres unmarked) [Example 399, N-(1-{5-[2-(aminomethyl)-4-fluorophenyl]-4-methyl-2-thienyl}ethyl)-6,7-dimethoxy-2-methylquinazolin-4-amine], the figures for the IC50 in assay [1] and in assay [2] (setting [3]) were 192 nM and > 20 µM, respectively.

With `CCCCC(O)c1ccccc1-c1ccc(C(C)Nc2nc(C)nc3cc(OC)c(OC)cc23)s1` (centres unmarked) [Example 377, 1-[2-(5-{1-[(6,7-dimethoxy-2-methylquinazolin-4-yl)amino]ethyl}thiophen-2-yl)phenyl]pentan-1-ol], the IC50 in assay [1] is 9750 nM; in assay [2] (setting [4]) it was > 20 µM.

Consider `Cc1nc(NC(C)c2ccc(-c3ccccc3CN(C)C)s2)c2cc(N3CCC(N(C)C)C3)ccc2n1` (centres unmarked) [Example 418, N-[1-(5-{2-[(dimethylamino)methyl]phenyl}thiophen-2-yl)ethyl]-6-[3-(dimethylamino)pyrrolidin-1-yl]-2-methylquinazolin-4-amine], for which the figures for the IC50 in assay [1] and in assay [2] (setting [3]) were 39.8 nM and > 20 µM, respectively.

For `COc1cc2nc(C)nc(NC(C)c3ccc(C4=CCCC4)s3)c2cc1OC` (centres unmarked) [Example 231, N-{1-[5-(cyclopent-1-en-1-yl)thiophen-2-yl]ethyl}-6,7-dimethoxy-2-methylquinazolin-4-amine], in assay [1], the inhibition at 20 µM stood at 53%. In addition, the IC50 in assay [2] (setting [5]) was > 20 µM.

Turning to `COc1cc2nc(C)nc(NC(C)c3ccc(-c4ccc(C#N)cc4CN(C)C)s3)c2cc1OC` (centres unmarked) [Example 413, 4-(5-{1-[(6,7-dimethoxy-2-methylquinazolin-4-yl)amino]ethyl}thiophen-2-yl)-3-[(dimethylamino)methyl]benzonitrile], the IC50 in assay [1] is 262 nM; in assay [2] (setting [3]), > 20 µM.

Take `CC(=O)NCCNc1ccc2nc(C)nc(NC(C)c3ccc(-c4ccccc4CN(C)C)s3)c2c1` (centres unmarked) [Example 427, N-{2-[(4-{[1-(5-{2-[(dimethylamino)methyl]phenyl}thiophen-2-yl)ethyl]amino}-2-methylquinazolin-6-yl)amino]ethyl}acetamide]: the IC50 in assay [1] is 49.8 nM; in assay [2] (setting [3]) it was > 20 µM.

As to `COc1cc2nc(C)nc(NC(C)c3ccc(-c4ccccc4C(O)Cc4ccccc4)s3)c2cc1OC` (centres unmarked) [Example 376, 1-[2-(5-{1-[(6,7-dimethoxy-2-methylquinazolin-4-yl)amino]ethyl}thiophen-2-yl)phenyl]-2-phenylethanol], the half-maximal inhibitory concentration (IC50) was 18400 nM in assay [1] and > 20 µM in assay [2] (setting [4]).

`COc1cc2nc(C)nc(NC(C)c3ccc(-c4ccccc4CN(C)C)s3)c2cc1OC` (single isomer, unassigned) [Example 390, N-[1-(5-{2-[(dimethylamino)methyl]phenyl}thiophen-2-yl)ethyl]-6,7-dimethoxy-2-methylquinazolin-4-amine]: the IC50 in assay [1] was 6250 nM; in assay [2] (setting [3]), > 20 µM.

Take `COc1cc2nc(C)nc(NC(C)c3cc(Cl)c(-c4ccccc4CN(C)C)s3)c2cc1OC` (centres unmarked) [Example 431, N-[1-(4-chloro-5-{2-[(dimethylamino)methyl]phenyl}thiophen-2-yl)ethyl]-6,7-dimethoxy-2-methylquinazolin-4-amine]: the IC50 in assay [1] is 215 nM; in assay [2] (setting [3]), > 20 µM.

Take `COc1cc2nc(C)nc(NC(C)c3ccc(-c4ccc(C)cc4CN(C)C)s3)c2cc1OC` (centres unmarked) [Example 442, N-[1-(5-{2-[(dimethylamino)methyl]-4-methylphenyl}thiophen-2-yl)ethyl]-6,7-dimethoxy-2-methylquinazolin-4-amine]: the IC50 was 39.4 nM in assay [1] and > 20 µM in assay [2] (setting [3]).

Take `COc1cc2nc(C)nc(NC(C)c3cc(Cl)c(-c4ccccc4CN)s3)c2cc1OC` (centres unmarked) [Example 430, N-[1-{5-[2-(aminomethyl)phenyl]-4-chlorothiophen-2-yl}ethyl]-6,7-dimethoxy-2-methylquinazolin-4-amine]: the IC50 in assay [1] is 378 nM; in assay [2] (setting [3]) it was > 20 µM.

`Cc1nc(NC(C)c2ccc(Br)s2)c2cc(N3CCN(Cc4ccccc4)C(=O)C3)ccc2n1` (centres unmarked) [Example 441, 1-benzyl-4-(4-{[1-(5-bromothiophen-2-yl)ethyl]amino}-2-methylquinazolin-6-yl)piperazin-2-one]: the IC50 in assay [1] is 3950 nM; in assay [2] (setting [3]), > 20 µM.

`COc1cc2nc(C)nc(NC(C)c3ccc(-c4ccccc4CC(N)=O)s3)c2cc1OC` (centres unmarked) [Example 394, 2-[2-(5-{1-[(6,7-dimethoxy-2-methylquinazolin-4-yl)amino]ethyl}thiophen-2-yl)phenyl]acetamide]: the IC50 is 1620 nM in assay [1] and > 20 µM in assay [2] (setting [3]).

On to `Cc1nc(N[C@H](C)c2cccc(Cl)c2)c2cc(C(C)(C)O)ccc2n1` [Example 392, 2-(4-{[(1R)-1-(3-chlorophenyl)ethyl]amino}-2-methylquinazolin-6-yl)propan-2-ol], for which the figures for the IC50 in assay [1] and in assay [2] (setting [3]) were 1190 nM and > 20 µM, respectively.

On to `COc1cc2nc(C)nc(NC(C)c3sc(Br)cc3Cl)c2cc1OC` (centres unmarked) [Example 428, N-[1-(5-bromo-3-chlorothiophen-2-yl)ethyl]-6,7-dimethoxy-2-methylquinazolin-4-amine], for which the IC50 in assay [1] was 705 nM; in assay [2] (setting [3]), > 20 µM.

In the case of `Cc1nc(NC(C)c2ccc(Br)s2)c2cc(N3CCN(C)CC3)ccc2n1` (centres unmarked) [Example 416, N-[1-(5-bromothiophen-2-yl)ethyl]-2-methyl-6-(4-methylpiperazin-1-yl)quinazolin-4-amine], the IC50 in assay [1] was 697 nM; in assay [2] (setting [3]), > 20 µM.

As to `COc1cc2nc(C)nc(NC(C)c3ccc(=O)[nH]c3)c2cc1OC` (single isomer, unassigned; enantiomer 1) [Example 227, 5-{1-[(6,7-dimethoxy-2-methylquinazolin-4-yl)amino]ethyl}pyridin-2(1H)-one, Enantiomer 1], the inhibition at 20 µM in assay [1] came out at 24%. In addition, the IC50 in assay [2] (setting [5]) is > 20 µM.
